Results taken from ChEMBL document CHEMBL1141845, “A new bistetrahydrofuran acetogenin from the roots of Annona salzmanii” (J Nat Prod, 1999).

What was measured:
KB = assay: Cytotoxicity against human KB cells; type: functional
[1] = Cytotoxicity against african green monkey Vero cells; type: cell-based; conditions: chlorocebus sabaeus, read-out: ED50 (the source's name)

SMILES | ED50 (KB) | CC50 [1]
CCCCCC[C@H](O)CCC[C@H](O)[C@H]1CC[C@@H]([C@H]2CC[C@H]([C@H](O)CC[C@H](O)CCCCCCCCCC3=C[C@H](C)OC3=O)O2)O1 [SALZMANIN] | 0.1 ×10⁻⁴ ug/ml | > 0.01 µg/mL
CCCCCC[C@H](O)CCC[C@H](O)[C@H]1CC[C@H]([C@H]2CC[C@H]([C@H](O)CCCCCCCCCCCCC3=C[C@H](C)OC3=O)O2)O1 [SQUAMOCIN] | 4 ×10⁻⁴ ug/ml | 
CC[C@]1(O)C[C@@H]2CN(CCc3c([nH]c4ccccc34)[C@@](C(=O)OC)(c3cc4c(cc3OC)N(C)[C@H]3[C@@](O)(C(=O)OC)[C@H](OC(C)=O)[C@]5(CC)C=CCN6CC[C@]43[C@@H]65)C2)C1 [VINBLASTINE] | 0.1 ×10⁻⁴ ug/ml | 
